No end group written: not given here.
Legend:
S. mutans UA159 and comD = experiment: Binding of fluorescently labeled peptides to S. mutans (fluorescence microscopy); parameters: species or system Streptococcus mutans; conditions: fluorescently labeled peptide
Excerpt: To determine whether there was a region within the CSPC16 sequence that was responsible for S. mutans-specific binding, we synthesized a series of fluorescently labeled CSPC16 fragments, and analyzed their ability to bind to S. mutans. The following strategies were utilized in dissecting the CSPC16 sequence (Table 2): First, a series of fragments were constructed by generating deletions of 3 or 4 amino acids, from the N to C terminus, across the CSPC16 sequence (C16-1 to C16-5). Peptides lacking larger portions of the C or N termini of CSPC16 were also synthesized (C16-6 to C16-12). Additionally, peptides with Arg to […] (a positive to negative change in charge) (C16-4) or Phe to Gly substitutions (for a general decrease in hydrophobicity) (C16-3), as well as peptides representing a 4-residue Ala scan of the C16 sequence were constructed (C 16-15 to C16-18). […] These peptides include C16 (SEQ ID NO 1), C16-3 (SEQ ID NO 39), C16-4 (SEQ ID NO 40), C16-5 (SEQ ID NO 41), C16-6 (SEQ ID NO 42), C16-11 (SEQ ID NO 47), C16-12 (SEQ ID NO 5), C16-16 (SEQ ID NO 51), C16-17 (SEQ ID NO 52), and C16-18 (SEQ ID NO 53).
(§1) 1.2 Fluorescent labeling of peptides and fluorescence microscopy. Aliquots of CSPC16 (SEQ ID NO 2), CSP-fragment peptides (Table 2), and C16G2 (SEQ ID NO 4) were labeled with carboxyfluorescein (Sigma) as described previously (Eckert et al., 2006). After peptide cleavage but prior to the bacterial labeling assay, fluorescence intensity per μM peptide was checked fluorimetrically (λex=488 nm, λem=520 nm VersaFluor, BioRad) and found to be relatively similar (data not shown). To evaluate the level of peptide binding to bacteria, streptococci from an overnight culture (OD600 of 0.7-1.0) were washed with phosphate buffered saline (1×PBS), diluted 1:2 into 1×PBS, and exposed to peptide (16 μM) for 5 min at 25° C. After incubation with peptide, unbound agent was removed from the bacteria by three cycles of centrifugation (5 min, 16,000×g) and resuspension in 1×PBS. Labeling of oral streptococci was evaluated using brightfield and fluorescence microscopy (Nikon E400) at a 40× magnification. The digital images utilized for the semi-quantitative binding assessment were acquired with the factory-supplied software (SPOT, Diagnostics).

other oral streptococci = experiment: Binding of fluorescently labeled peptides to other oral streptococci; conditions: fluorescently labeled peptide
Excerpt: as §1

S. gordonii biofilms = experiment: Single-species biofilm regrowth after peptide exposure, S. gordonii; assay type: cell-based; conditions: 25 μM peptide, 1 min exposure
Procedure: 1.5 Examination of antimicrobial activity against single-species biofilms. To initiate biofilm formation, ˜1×10^7 bacteria per well (from overnight cultures) were seeded in TH medium (100 μL) to a 96-well flat-bottom plate. For all streptococci except S. mutans, the medium was supplemented with 0.5% (w/v) mannose and glucose. S. mutans UA159 biofilms were grown with 0.5% (w/v) sucrose. Plates were then centrifuged briefly to pellet the cells, and bacteria were incubated for 3-4 hours at 37° C. for biofilm formation. After incubation, the supernatant was carefully removed and biofilms were treated with 25 μM peptide in 1×PBS or 1×PBS alone for 1 min. The peptide solution was then removed and 100 μL TH was added to further dilute any remaining peptide. To minimize biofilm loss, cells were briefly centrifuged after TH addition, after which the supernatants were removed and fresh medium plus appropriate sugars were returned. Cells were then incubated anaerobically at 37° C. and biofilm growth was monitored over time by measuring absorbance at OD600 with a microplate spectrophotometer (Benchmark Plus, BioRad).

TFFRLFNRSFTQALGKGGGKNLRIIRKGIHIIKKY-NH2 [Peptide C16G2]
binding to S. mutans (in words) (S. mutans UA159 and comD): could specifically bind to S. mutans
binding to other oral streptococci (other oral streptococci): not to other oral streptococci
biofilm re-growth after treatment (OD600) (S. gordonii biofilms): grew similarly to untreated biofilms
